# Test results: patent publication US20100152434A1, “Protein Kinase-binding Nucleosides and Associated Methods” (priority 2007, published 2010)
# Like-named read-outs stand apart in the source and are kept apart here.
# How the values were obtained:
# [1] = test system: 60 different human tumor cell lines (the NCI 60); settings: CCRF-CEM, HL-60(TB), K-562, MOLT-4, RPMI-8226, SR, A549/ATCC, NCI-H460, HCT-116, HCT-15, HT29, SF-268, SF-295, U251, LOX IMVI, SK-MEL-28, SK-MEL-5, IGROV1, OVCAR-3, OVCAR-8, A498, RXF393, MCF7, HS578T
# HL-60(TB) [2] = test system: HL-60(TB)
# K-562 [3] = test system: K-562
# MOLT-4 [4] = test system: MOLT-4
# SR [5] = test system: SR
# SK-MEL-28 [6] = test system: SK-MEL-28
# [7] = test system: 60 different human tumor cell lines (the NCI 60); test: cells; settings: read-out: LC50 value for each cell line
# HL-60(TB) [8] = test: cells; settings: Homo sapiens
# K-562 [9] = test: cells; settings: Homo sapiens
# MOLT-4 [10] = test: cells; settings: Homo sapiens
# SR [11] = test: cells; settings: Homo sapiens; for CC50: read-out: LC50
# SW-620 = test: cells; settings: Homo sapiens
# SK-MEL-28 [12] = test: cells; settings: Homo sapiens
# cells = settings: Homo sapiens
# HS 578T = test: cells; settings: Homo sapiens; for CC50: read-out: LC50
# TYK2 = TYK2 (Homo sapiens, UniProt P29597); test: Ambit kinase phage display ATP-binding-site ligand binding assay; settings: read-out: % Inhibition of binding to ATP-binding-site ligand
# From the text: (§1) This assay is based on ligand-affinity/protein kinase phage display and was employed essentially as described by Fabian et. al [Nature Biotech. […] In this assay, protein kinases are cloned into T7 bacteriophage which express the kinase fusion proteins on the phage capsid. T7 kinase-tagged phage are then screened for binding to ATP-binding-site ligands that have been immobilized on a solid support. Phage are screened for binding to the anchored ligands both in the presence of test compound and in its absence (control). Elution of the bound phage by free ligand (ATP-binding site ligand that is not immobilized on a solid support) followed by determination of the phage titre provides a reliable measure of the ability of test compounds to block binding of target kinases to resin-bound ATP-binding-site ligands.
# (§2) T7 kinase-tagged phage strains were grown in parallel in microtiter plates in a proprietary bacterial host derived from E. Coli strain BL21. E. Coli were grown to a log phase, infected with T7 kinase-tagged phage, and incubated while shaking at 32° C. until bacterial lysis (approx. 90 min). Lysates were centrifuged (6,000 g) and filtered (0.2 μm). […] The phage titre of the eluates was measured by quantitative PCR or by plaque assays. […]
# IKK-α = IKK-α (Homo sapiens, UniProt O15111); test: as above; settings: read-out: % Inhibition of binding to ATP-binding-site ligand
# From the text: (§3) In this assay, protein kinases are cloned into T7 bacteriophage which express the kinase fusion proteins on the phage capsid. T7 kinase-tagged phage are then screened for binding to ATP-binding-site ligands that have been immobilized on a solid support. Phage are screened for binding to the anchored ligands both in the presence of test compound and in its absence (control). Elution of the bound phage by free ligand (ATP-binding site ligand that is not immobilized on a solid support) followed by determination of the phage titre provides a reliable measure of the ability of test compounds to block binding of target kinases to resin-bound ATP-binding-site ligands.
# (§4) T7 kinase-tagged phage strains were grown in parallel in microtiter plates in a proprietary bacterial host derived from E. Coli strain BL21. E. Coli were grown to a log phase, infected with T7 kinase-tagged phage, and incubated while shaking at 32° C. until bacterial lysis (approx. 90 min). Lysates were centrifuged (6,000 g) and filtered (0.2 μm). Small molecule ATP-binding-site-specific ligands were anchored to solid supports via a two step process beginning with biotin conjugation followed by treatment of the biotin/small molecule conjugate with streptavidin-coated magnetic beads. […] The phage titre of the eluates was measured by quantitative PCR or by plaque assays. […]
# CSNK1G2 = CSNK1G2 (Homo sapiens, UniProt P78368); test: as above; settings: read-out: % Inhibition of binding to ATP-binding-site ligand
# From the text: as §3, §4
# RPS6KA2 = RPS6KA2 (Homo sapiens, UniProt Q15349); test: as above; settings: read-out: percent inhibition of binding
# From the text: as §1, §2
# MEK6 = MEK6 (Homo sapiens, UniProt P52564); test: as above; settings: read-out: percent inhibition of binding
# From the text: as §1, §2
# MAP4K5 = MAP4K5 (Homo sapiens, UniProt Q9Y4K4); test: as above; settings: read-out: percent inhibition of binding
# From the text: as §1, §2
# ABL1(F317) = test: as above; settings: 10 μM
# From the text: as §3, §4
# PHKG2 = PHKG2 (Homo sapiens, UniProt P15735); test: as above; settings: read-out: percent inhibition of binding
# From the text: as §1, §2
# PDGFRB = PDGFRB (Homo sapiens, UniProt P09619); test: as above; settings: read-out: percent inhibition of binding
# From the text: as §3, §4
# CDK5 = CDK5 (Homo sapiens, UniProt Q00535); test: as above; settings: read-out: percent inhibition of binding
# From the text: as §3, §4
# [13] = Log10 Concentration −4.0, Molar
# [14] = Log10 Concentration −5.0, Molar
# [15] = Log10 Concentration −6.0, Molar
# [16] = Log10 Concentration −7.0, Molar
# [17] = Log10 Concentration −8.0, Molar
# Chain of TYK2 (P29597 whole entry): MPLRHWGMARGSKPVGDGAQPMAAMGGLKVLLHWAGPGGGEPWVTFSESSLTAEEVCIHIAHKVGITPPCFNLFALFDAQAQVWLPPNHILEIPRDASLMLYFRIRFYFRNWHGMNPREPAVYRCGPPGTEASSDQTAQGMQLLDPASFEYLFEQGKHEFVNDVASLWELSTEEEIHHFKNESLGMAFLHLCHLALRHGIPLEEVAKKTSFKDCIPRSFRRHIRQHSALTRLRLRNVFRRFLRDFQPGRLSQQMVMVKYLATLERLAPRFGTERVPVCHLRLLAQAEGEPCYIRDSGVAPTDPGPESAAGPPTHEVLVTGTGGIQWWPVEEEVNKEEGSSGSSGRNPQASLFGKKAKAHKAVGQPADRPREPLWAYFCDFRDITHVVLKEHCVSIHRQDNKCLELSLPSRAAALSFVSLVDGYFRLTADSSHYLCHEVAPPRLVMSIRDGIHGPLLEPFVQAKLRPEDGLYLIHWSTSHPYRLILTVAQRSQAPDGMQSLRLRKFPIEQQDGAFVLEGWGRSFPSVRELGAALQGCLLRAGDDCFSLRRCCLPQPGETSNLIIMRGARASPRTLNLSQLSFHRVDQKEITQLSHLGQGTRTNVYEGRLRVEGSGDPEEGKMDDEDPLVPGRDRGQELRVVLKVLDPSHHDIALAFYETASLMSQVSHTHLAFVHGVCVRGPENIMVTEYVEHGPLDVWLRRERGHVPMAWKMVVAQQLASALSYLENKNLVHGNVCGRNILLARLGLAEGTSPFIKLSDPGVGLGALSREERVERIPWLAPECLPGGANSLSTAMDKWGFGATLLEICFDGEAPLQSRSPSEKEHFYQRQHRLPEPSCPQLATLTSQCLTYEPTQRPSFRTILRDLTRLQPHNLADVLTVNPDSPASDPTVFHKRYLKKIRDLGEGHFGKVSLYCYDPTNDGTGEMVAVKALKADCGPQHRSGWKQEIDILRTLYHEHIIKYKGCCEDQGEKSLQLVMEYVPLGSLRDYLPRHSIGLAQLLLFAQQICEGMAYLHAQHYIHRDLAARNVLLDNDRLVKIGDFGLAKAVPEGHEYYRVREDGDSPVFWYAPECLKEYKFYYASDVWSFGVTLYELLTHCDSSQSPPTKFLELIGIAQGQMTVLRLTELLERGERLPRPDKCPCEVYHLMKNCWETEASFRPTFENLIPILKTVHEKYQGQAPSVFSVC
# Chain of MEK6 (P52564 whole entry): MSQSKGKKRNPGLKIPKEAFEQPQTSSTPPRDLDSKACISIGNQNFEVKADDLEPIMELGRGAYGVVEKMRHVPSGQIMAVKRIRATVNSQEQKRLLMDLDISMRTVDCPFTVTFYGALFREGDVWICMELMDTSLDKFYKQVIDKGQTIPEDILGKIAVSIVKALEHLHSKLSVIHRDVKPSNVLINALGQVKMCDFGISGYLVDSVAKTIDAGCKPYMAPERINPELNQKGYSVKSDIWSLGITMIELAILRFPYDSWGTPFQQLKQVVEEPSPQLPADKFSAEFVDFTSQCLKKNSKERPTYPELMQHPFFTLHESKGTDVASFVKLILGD
# Chain of CSNK1G2 (P78368 whole entry): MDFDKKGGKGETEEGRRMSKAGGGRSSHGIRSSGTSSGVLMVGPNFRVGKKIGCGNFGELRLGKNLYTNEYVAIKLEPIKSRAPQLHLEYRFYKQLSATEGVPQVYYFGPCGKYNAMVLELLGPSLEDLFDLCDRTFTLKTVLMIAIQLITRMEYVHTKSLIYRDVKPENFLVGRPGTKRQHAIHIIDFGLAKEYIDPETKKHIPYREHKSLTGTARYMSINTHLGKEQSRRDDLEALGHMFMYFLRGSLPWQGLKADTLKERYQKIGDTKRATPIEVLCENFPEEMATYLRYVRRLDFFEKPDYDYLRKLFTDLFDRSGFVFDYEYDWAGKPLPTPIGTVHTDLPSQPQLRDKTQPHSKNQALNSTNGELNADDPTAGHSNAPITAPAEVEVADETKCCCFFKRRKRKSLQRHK
# Chain of CDK5 (Q00535 whole entry): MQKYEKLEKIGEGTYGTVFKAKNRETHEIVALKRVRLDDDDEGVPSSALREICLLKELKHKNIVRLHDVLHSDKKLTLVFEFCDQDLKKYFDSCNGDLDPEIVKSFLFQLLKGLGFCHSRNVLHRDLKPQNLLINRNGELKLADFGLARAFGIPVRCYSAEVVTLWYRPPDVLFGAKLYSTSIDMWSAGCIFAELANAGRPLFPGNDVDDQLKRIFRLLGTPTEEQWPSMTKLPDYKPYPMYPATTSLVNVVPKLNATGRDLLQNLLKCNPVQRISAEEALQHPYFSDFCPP
# Chain of PDGFRB (P09619 33-1106): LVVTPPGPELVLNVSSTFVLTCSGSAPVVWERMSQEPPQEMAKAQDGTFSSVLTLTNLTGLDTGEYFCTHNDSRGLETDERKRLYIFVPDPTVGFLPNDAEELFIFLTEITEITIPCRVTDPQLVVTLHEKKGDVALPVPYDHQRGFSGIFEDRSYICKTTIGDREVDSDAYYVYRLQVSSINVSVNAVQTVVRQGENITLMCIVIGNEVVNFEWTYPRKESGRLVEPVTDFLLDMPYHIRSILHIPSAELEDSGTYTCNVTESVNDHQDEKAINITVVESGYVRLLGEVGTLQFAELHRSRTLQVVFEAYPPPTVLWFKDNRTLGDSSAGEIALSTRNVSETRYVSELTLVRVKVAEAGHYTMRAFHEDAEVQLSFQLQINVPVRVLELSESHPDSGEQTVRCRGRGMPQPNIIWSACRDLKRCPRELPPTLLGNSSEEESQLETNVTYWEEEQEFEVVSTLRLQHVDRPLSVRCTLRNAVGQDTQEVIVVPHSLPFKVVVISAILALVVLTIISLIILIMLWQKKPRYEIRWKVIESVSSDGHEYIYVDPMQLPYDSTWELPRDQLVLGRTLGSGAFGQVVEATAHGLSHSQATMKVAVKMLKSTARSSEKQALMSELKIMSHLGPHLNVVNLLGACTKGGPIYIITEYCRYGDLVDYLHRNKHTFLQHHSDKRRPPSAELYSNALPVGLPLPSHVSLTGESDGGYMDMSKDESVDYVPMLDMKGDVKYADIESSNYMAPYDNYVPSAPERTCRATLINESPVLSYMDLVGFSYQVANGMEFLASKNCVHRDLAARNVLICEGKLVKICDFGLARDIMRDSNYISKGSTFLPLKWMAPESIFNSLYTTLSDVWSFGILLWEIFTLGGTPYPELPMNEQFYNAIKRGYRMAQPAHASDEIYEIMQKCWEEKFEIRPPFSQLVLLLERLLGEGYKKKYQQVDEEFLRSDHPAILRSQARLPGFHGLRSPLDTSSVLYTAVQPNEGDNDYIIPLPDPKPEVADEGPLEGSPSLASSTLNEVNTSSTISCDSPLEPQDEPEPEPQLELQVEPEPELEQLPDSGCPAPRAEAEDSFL
# Chain of MAP4K5 (Q9Y4K4 whole entry): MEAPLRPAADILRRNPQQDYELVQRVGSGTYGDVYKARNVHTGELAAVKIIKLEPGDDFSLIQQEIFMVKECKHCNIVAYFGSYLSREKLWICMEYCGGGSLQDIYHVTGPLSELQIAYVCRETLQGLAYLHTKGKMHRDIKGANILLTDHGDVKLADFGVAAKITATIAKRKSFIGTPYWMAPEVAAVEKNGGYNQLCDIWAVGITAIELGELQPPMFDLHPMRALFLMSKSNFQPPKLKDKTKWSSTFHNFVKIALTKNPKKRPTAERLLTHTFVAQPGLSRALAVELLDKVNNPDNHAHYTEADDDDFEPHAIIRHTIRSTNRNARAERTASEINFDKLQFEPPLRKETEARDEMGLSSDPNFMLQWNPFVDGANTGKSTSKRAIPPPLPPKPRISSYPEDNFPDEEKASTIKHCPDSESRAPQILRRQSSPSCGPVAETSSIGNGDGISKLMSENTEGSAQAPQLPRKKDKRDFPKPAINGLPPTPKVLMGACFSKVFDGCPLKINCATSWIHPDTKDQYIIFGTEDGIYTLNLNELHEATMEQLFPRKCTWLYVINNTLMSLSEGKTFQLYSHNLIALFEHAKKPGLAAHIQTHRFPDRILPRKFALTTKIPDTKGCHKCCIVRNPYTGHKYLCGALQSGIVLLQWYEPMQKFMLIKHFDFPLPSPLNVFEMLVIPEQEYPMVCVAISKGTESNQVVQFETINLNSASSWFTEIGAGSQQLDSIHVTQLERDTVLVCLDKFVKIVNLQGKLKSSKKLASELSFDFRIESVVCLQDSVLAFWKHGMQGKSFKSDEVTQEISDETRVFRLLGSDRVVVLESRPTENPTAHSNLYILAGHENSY
# Chain of PHKG2 (P15735 whole entry): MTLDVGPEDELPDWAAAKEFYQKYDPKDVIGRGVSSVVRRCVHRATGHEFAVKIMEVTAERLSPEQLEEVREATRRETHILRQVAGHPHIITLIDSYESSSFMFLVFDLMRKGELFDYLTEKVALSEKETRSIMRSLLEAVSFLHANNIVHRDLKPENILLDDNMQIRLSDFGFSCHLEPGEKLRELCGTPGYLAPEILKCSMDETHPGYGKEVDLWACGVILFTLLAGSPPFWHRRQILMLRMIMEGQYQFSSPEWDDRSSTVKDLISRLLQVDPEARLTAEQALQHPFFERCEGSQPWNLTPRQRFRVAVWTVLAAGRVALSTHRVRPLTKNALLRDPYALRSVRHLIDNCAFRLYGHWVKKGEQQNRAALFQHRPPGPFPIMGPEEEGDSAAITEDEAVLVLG
smiles,measurement,setting,value
CCOC(=O)C[C@@H]1C(O[Si](C)(C)C(C)(C)C)[C@H](n2cnc3c(NC(=O)Nc4ccccc4)ncnc32)O[C@@H]1CNC(=O)NC (stereo partly shown) [Compound 10],GI50 values (potent anticancer activities),"[1]; HOP-62, NCI-H522, COLO 205, KM12, SW-620, SF-539, SNB-75, M14, SK-MEL-2, UACC-257, 786-0, ACHN, SN12C, PC-3, DU-145, MDA-MB-231/ATCC, MDA-MB-435, T-47D",low micromolar
same,Percent Growth,HL-60(TB) [2]; [13],22%
same,Percent Growth,HL-60(TB) [2]; [14],−5%
same,Percent Growth,HL-60(TB) [2]; [15],101%
same,Percent Growth,HL-60(TB) [2]; [16],110%
same,Percent Growth,HL-60(TB) [2]; [17],85%
same,TGI,K-562 [3]; 48 h,3.29E−5 Molar
same,Percent Growth,K-562 [3]; [13],−17%
same,Percent Growth,K-562 [3]; [14],19%
same,Percent Growth,K-562 [3]; [15],89%
same,Percent Growth,K-562 [3]; [16],93%
same,Percent Growth,K-562 [3]; [17],96%
same,TGI,MOLT-4 [4]; 48 h,2.33E−5 Molar
same,Percent Growth,MOLT-4 [4]; [13],−14%
same,Percent Growth,MOLT-4 [4]; [14],8%
same,Percent Growth,MOLT-4 [4]; [15],76%
same,Percent Growth,MOLT-4 [4]; [16],84%
same,Percent Growth,MOLT-4 [4]; [17],93%
same,TGI,SR [5]; 48 h,7.07E−6 Molar
same,Percent Growth,SR [5]; [13],−34%
same,Percent Growth,SR [5]; [14],−15%
same,Percent Growth,SR [5]; [15],85%
same,Percent Growth,SR [5]; [16],70%
same,Percent Growth,SR [5]; [17],82%
same,TGI,SK-MEL-28 [6]; 48 h,2.02E−5 Molar
same,Percent Growth,SK-MEL-28 [6]; [13],−91%
same,Percent Growth,SK-MEL-28 [6]; [14],40%
same,Percent Growth,SK-MEL-28 [6]; [15],100%
same,Percent Growth,SK-MEL-28 [6]; [16],106%
same,Percent Growth,SK-MEL-28 [6]; [17],104%
same,TGI,PC-3; 48 h,4.85E−6 Molar
same,Percent Growth,PC-3; [13],−77%
same,Percent Growth,PC-3; [14],−47%
same,Percent Growth,PC-3; [15],103%
same,Percent Growth,PC-3; [16],126%
same,Percent Growth,PC-3; [17],121%
same,CC50,[7],> 100 µM
same,GI50,"HL-60(TB) [8]; HL-60, 48 h",3.01 µM
same,CC50,"HL-60(TB) [8]; HL-60, 48 h, read-out: LC50",> 100 µM
same,GI50,"K-562 [9]; K562, 48 h",3.59 µM
same,CC50,"K-562 [9]; K562, 48 h, read-out: LC50",> 100 µM
same,GI50,"MOLT-4 [10]; MOLT-4, 48 h",2.39 µM
same,CC50,"MOLT-4 [10]; MOLT-4, 48 h, read-out: LC50",> 100 µM
same,GI50,SR [11]; 48 h,2.23 µM
same,CC50,SR [11]; 48 h,> 100 µM
same,GI50,"SW-620; SW-620, 48 h",4.8 µM
same,CC50,"SW-620; SW-620, 48 h, read-out: LC50",> 100 µM
same,GI50,"SK-MEL-28 [12]; SK-MEL-28, 48 h",6.85 µM
same,CC50,"SK-MEL-28 [12]; SK-MEL-28, 48 h, read-out: LC50",48.7 µM
same,CC50,"cells; 48 h, read-out: LC50",17.9 µM
same,GI50,HS 578T; 48 h,3.6 µM
same,CC50,HS 578T; 48 h,> 100 µM
same,inhibition at 10 µM,TYK2,31%
same,inhibition at 10 µM,IKK-α,37%
same,inhibition at 10 µM,CSNK1G2,38%
same,inhibition at 10 µM,RPS6KA2,20 to 29%
same,inhibition at 10 µM,MEK6,20 to 29%
same,inhibition at 10 µM,MAP4K5,20 to 29%
same,percent inhibition of binding,ABL1(F317),20-29%
same,inhibition at 10 µM,PHKG2,20 to 29%
same,inhibition at 10 µM,PDGFRB,20 to 29%
same,inhibition at 10 µM,CDK5,20 to 29%
"CNC(=O)NC[C@H]1O[C@@H](n2cnc3c(NC(=O)Nc4ccccc4)ncnc32)[C@H](O[Si](C)(C)C(C)(C)C)[C@@H]1CC(=O)N(C)OC [Compound 13, 2′-O-(tert-Butyldimethylsilyl)-3′,5′-dideoxy-3′-[(N-methoxy-N-methylcarboxamido)methyl]-5′-[(N-methylcarbamoyl)amino]-N^6-(N-phenylcarbamoyl)adenosine]",GI50 values (potent anticancer activities),[1]; HOP-92,low micromolar
same,TGI,HL-60(TB) [2],4.34E−6 Molar
same,Percent Growth,HL-60(TB) [2]; Log10 Concentration −4.0,−58%
same,Percent Growth,HL-60(TB) [2]; Log10 Concentration −5.0,−48%
same,Percent Growth,HL-60(TB) [2]; Log10 Concentration −6.0,84%
same,Percent Growth,HL-60(TB) [2]; Log10 Concentration −7.0,86%
same,Percent Growth,HL-60(TB) [2]; Log10 Concentration −8.0,95%
same,TGI,K-562 [3],>1.00E−4 Molar
same,Percent Growth,K-562 [3]; Log10 Concentration −4.0,24%
same,Percent Growth,K-562 [3]; Log10 Concentration −5.0,17%
same,Percent Growth,K-562 [3]; Log10 Concentration −6.0,82%
same,Percent Growth,K-562 [3]; Log10 Concentration −7.0,95%
same,Percent Growth,K-562 [3]; Log10 Concentration −8.0,95%
same,TGI,MOLT-4 [4],9.36E−6 Molar
same,Percent Growth,MOLT-4 [4]; Log10 Concentration −4.0,−5%
same,Percent Growth,MOLT-4 [4]; Log10 Concentration −5.0,−2%
same,Percent Growth,MOLT-4 [4]; Log10 Concentration −6.0,78%
same,Percent Growth,MOLT-4 [4]; Log10 Concentration −7.0,90%
same,Percent Growth,MOLT-4 [4]; Log10 Concentration −8.0,96%
same,TGI,SR [5],3.46E−6 Molar
same,Percent Growth,SR [5]; Log10 Concentration −4.0,−56%
same,Percent Growth,SR [5]; Log10 Concentration −5.0,−53%
same,Percent Growth,SR [5]; Log10 Concentration −6.0,62%
same,Percent Growth,SR [5]; Log10 Concentration −7.0,89%
same,Percent Growth,SR [5]; Log10 Concentration −8.0,85%
same,TGI,SK-MEL-28 [6],>1.00E−4 Molar
same,Percent Growth,SK-MEL-28 [6]; Log10 Concentration −4.0,27%
same,Percent Growth,SK-MEL-28 [6]; Log10 Concentration −5.0,44%
same,Percent Growth,SK-MEL-28 [6]; Log10 Concentration −6.0,101%
same,Percent Growth,SK-MEL-28 [6]; Log10 Concentration −7.0,106%
same,Percent Growth,SK-MEL-28 [6]; Log10 Concentration −8.0,97%
same,CC50,[7],> 100 µM
same,GI50,HL-60(TB) [8]; HL-60,1.81 µM
same,CC50,"HL-60(TB) [8]; HL-60, read-out: LC50",16.4 µM
same,GI50,K-562 [9]; K562,3.12 µM
same,CC50,"K-562 [9]; K562, read-out: LC50",> 100 µM
same,GI50,MOLT-4 [10]; MOLT-4,2.23 µM
same,CC50,"MOLT-4 [10]; MOLT-4, read-out: LC50",> 100 µM
same,GI50,SR [11],1.27 µM
same,CC50,SR [11],9.43 µM
same,GI50,SW-620; SW-620,> 100 µM
same,CC50,"SW-620; SW-620, read-out: LC50",> 100 µM
same,GI50,SK-MEL-28 [12]; SK-MEL-28,7.77 µM
same,CC50,"SK-MEL-28 [12]; SK-MEL-28, read-out: LC50",> 100 µM
same,CC50,"cells; 786-0, read-out: LC50",> 100 µM
same,GI50,HS 578T,5.79 µM
same,CC50,HS 578T,> 100 µM
"CNC(=O)NC[C@H]1O[C@@H](n2cnc3c(NC(=O)Nc4ccccc4)ncnc32)C(O[Si](C)(C)C(C)(C)C)[C@H]1O[Si](C)(C)C(C)(C)C (stereo partly shown) [Compound 25, 2′,3′-Bis-O-(tert-butyldimethylsilyl)-5-deoxy-5′-[(N-methylcarbamoyl)amino]-N^6-(N-phenylcarbamoyl)adenosine]",TGI,PC-3,>1.00E−4 Molar
same,Percent Growth,PC-3; [13],4%
same,Percent Growth,PC-3; [14],6%
same,Percent Growth,PC-3; [15],83%
same,Percent Growth,PC-3; [16],91%
same,Percent Growth,PC-3; [17],93%
